{"source": "patent US10900093B2", "about": "“Molecular marker of plasmodium falciparum artemisinin resistance” (priority 2013, dated 2021)", "assay_type_in_all_cases": "cell-based, Plasmodium falciparum", "key": {"[1]": {"system": "F32-ART5 parasite line (0-3h post-invasion ring-stage parasites)", "assay": "Ring-stage Survival Assay (RSA0-3h), F32-ART5 lineage", "conditions": "for RSA0-3h survival rate (median): 700 nM DHA for 6 h, n=3", "description": "(§1) The Ring-stage Survival Assay (RSA^0-3h) was carried out as described by Witkowski et al^13 using highly synchronous parasite cultures. In brief, 0-3h post-invasion ring-stage parasites were exposed to 700 nM DHA [dihydroartemisinin, obtained from WWARN (www.wwarn.org/research/tools/qaqc)] or its solvent DMSO for 6 h, washed and then cultivated for the next 66 h without drug. Survival rates were assessed microscopically by counting in Giemsa-stained thin smears the proportion of viable parasites that developed into second-generation rings or trophozoites with normal morphology.\n(§2) The F32-ART5 samples tested in the Ring-stage Survival Assay (RSA^0-3h) were collected at the time of the 17th, 48th and 122nd pressure cycles (0.04, 2.7 and 9 μM ART), respectively. The F32-TEM sample was collected at the last mock pressure cycle. The RSA0-3h survival rates were determined in triplicate experiments with different batches of red blood cells, and evaluated as above using Giemsa-stained thin smears read by two independent microscopists (B. W. and F. B.-V.). Survival rates were compared using Mann-Whitney U test. […] The RSA^0-3h survival rate of the F32-TEM line was also determined in triplicate experiments (n=3, median 0%, IQR 0-0.05, P=0.81 for #TEM vs. #17, Mann-Whitney U test)."}, "[2]": {"system": "F32-TEM line (0-3h post-invasion ring-stage parasites)", "assay": "Ring-stage Survival Assay (RSA0-3h), F32-TEM line", "conditions": "last mock pressure cycle, 700 nM DHA for 6 h, n=3", "description": "as §1, §2"}, "[3]": {"system": "Cambodian parasite isolates (0-3h post-invasion ring-stage parasites)", "assay": "Ring-stage Survival Assay (RSA0-3h), culture-adapted Cambodian parasite isolates stratified by K13-propeller allele", "description": "Fifty clinical P. falciparum isolates from Cambodia (collected in 2010 and 2011) were adapted to in vitro culture as described by Witkowski et al.^45. […] Parasite DNA was extracted from frozen blood aliquots (200 μl) using the Mini blood kit (Qiagen).\nas §1"}, "3D7 parasites": {"system": "3D7 parasites", "assay": "Ring-stage Survival Assay (RSA0-3h), control 3D7 parasites", "description": "as §1"}}}
{"smiles": "C[C@H]1[C@@H](O)O[C@@H]2O[C@@]3(C)CC[C@H]4[C@H](C)CC[C@@H]1[C@@]24OO3", "note": "[DHA, dihydroartemisinin]", "values": [{"measurement": "RSA0-3h survival rate (median)", "setting": "[1]; F32-ART5 at drug-pressure cycle #17", "value": 0, "unit": "%"}, {"measurement": "RSA0-3h survival rate (median)", "setting": "[1]; F32-ART5 at drug-pressure cycle #48", "value": 11.7, "unit": "%"}, {"measurement": "RSA0-3h survival rate (median)", "setting": "[1]; F32-ART5 at drug-pressure cycle #122", "value": 12.8, "unit": "%"}, {"measurement": "RSA0-3h survival rate", "setting": "[1]; F32-ART5 lineage after appearance of PF3D7_0110400 D56V and PF3D7_1343700 M476I mutations", "value": 12.8, "unit": "%"}, {"measurement": "RSA0-3h survival rate", "setting": "[1]; F32-ART5 lineage before appearance of PF3D7_0110400 D56V and PF3D7_1343700 M476I mutations", "value": "less than 0.01%"}, {"measurement": "RSA0-3h survival rate (median)", "setting": "[2]", "value": 0, "unit": "%"}, {"measurement": "RSA0-3h survival rate (median)", "setting": "[3]; isolates with wildtype K13-propeller alleles, n=16", "value": 0.17, "unit": "%"}, {"measurement": "RSA0-3h survival rate (median)", "setting": "[3]; wildtype K13-propeller, n=17 (FIG. 2), 700 nM DHA for 6 h", "value": 0.16, "unit": "%"}, {"measurement": "RSA0-3h survival rate (median)", "setting": "[3]; {}", "value": 18.8, "unit": "%"}, {"measurement": "RSA0-3h survival rates (range)", "setting": "[3]; {}", "value": "3.8%-58%"}, {"measurement": "RSA0-3h survival rate", "setting": "3D7 parasites", "value": 0.04, "unit": "%"}]}
